Key:
[1] = test system: abnormal neurones in brain areas after four vessel occlusion; test: Ten minute model of four vessel occlusion with 72 hour survival; type: in vivo; conditions: 100 mg/kg i.a. 5 min plus 500 mg/kg i.p. 15 min post-ischaemia
Procedure: B. Ten minute Model of four vessel occlusion with 72 hour survival.
The procedure used was that of Alps, et al., Neurology, 37, 809 (1987). The object of this assay was to count abnormally appearing cells in 7 different areas and exymers as a percentage of the total area counted. The number of counts per structure depended upon size, e.g., cortical areas had double the number of other areas. Mean whole brain scores were also determined for percent abnormalities. Normal brains were also used to account for incidence of artifact changes attributed to the fixation process.
. In this case 6 animals were used with the results shown in the below table.
2) Untreated (saline) ischemic controls--The animals were subjected to 10 minutes of bilateral common cartoid artery occlusion (with previously surgically sealed vertebral arteries) with 72 hours survival. The microscopic sections were prepared as in 1) above. In this case 11 animals were used with the results shown in the below table.
Parenteral, post-ischaemia treated--The animals were given 100 mg/kg i.a. of 1-diphenyl-methyl-4-[(2-(4-methylphenyl)-5-methylimidazol-4-yl)-methyl]piperazine trihydrochloride 5 minutes post-ischaemia plus 500 mg/kg i.p. of 1-diphenyl-methyl-4-[(2-(4-methylphenyl)-5-methylimidazol-4-yl)-methyl]piperazine trihydrochloride 15 minutes post-ischaemia. The microscopic sections were prepared according to 1) above. In this case 5 animals were used with the results shown in the below table.

[2] = test system: male normotensive rats (urine volume, sodium and potassium excretion); test: Diuresis in male normotensive rats; type: in vivo, rat
Procedure: Male normotensive rats weighing 290-380 g were divided into four groups of seven animals. All animals were fasted and deprived of water overnight. The following morning, each group of rats was hydrated with deionized water ([…]. p.o.) 45 minutes prior to the administration of vehicle (1% polysorbate 80 in deionized water) or 1-diphenyl-methyl-4-[(2-(4-methylphenyl)-5-methylimidazol-4-yl)methyl]-piperazine trihydrochloride at doses of 5, 15, or 30 mg/kg p.o. Fifteen minutes post-drug, the animals were saline loaded (30 ml/kg, p.o. 0.9% sodium chloride) and placed individually in metabolism cages. Urine was collected at 1, 3, and 6 hour intervals post-dose. Urine volumes were measured and sodium and potassium levels were determined by flame photometry. Differences between control and treated values were evaluated by one way analysis of variance.

[3] = test system: barium-stimulated intestinal transit of the charcoal meal; test: Irritable bowel syndrome: intestinal transit of a charcoal meal in conscious mice, barium chloride stimulated; type: in vivo, mouse; conditions: Mus musculus, po, 15 min pre-treatment, % of total transit induced by Ba^+2, read-out: % Inhibition of Ba^+2 effect
Procedure: (§1) The test used is a modification of the method of Macht and Barba-Gose, J. Amer. Pharm. […] In the present model, intestinal transit in conscious mice (15-20 g) was accelerated with an oral dose of barium chloride (300 mg/kg) administered at the same time as the charcoal meal. The animals were sacrificed 10 minutes later and the distance travelled by the charcoal measured. 1-diphenyl-methyl-4-[(2-(4-methylphenyl)-5-methylimidazol-4-yl)methyl]-piperazine trihydrochloride was given as a 15 minute oral pre-treatment and its effect on non-stimulated or barium-stimulated intestinal transit of the charcoal meal was calculated.

[4] = test system: pentylenetetrazole-induced seizures and mortality; test: Effect on pentylenetetrazole-induced seizures and mortality in the mouse; type: in vivo, mouse (male CDI); conditions: 500 mg/kg i.p., pentylenetetrazole 100 mg/kg s.c.
Procedure: C. The effect of 1-diphenyl-methyl-4-[(2-(4-methylphenyl)-5-methylimidazol-4-yl)-methyl]piperazine trihydrochloride on pentylenetetrazole-induced seizures and mortality in the mouse.
The procedure used was that described in Allely, and Alps, Br. J. Phramacol. Proc. Suppl., 92, 605P (1987). Groups of 20 or more (see n in table) male CDI mice were predosed with 500 mg/kg i.p. of 1-diphenyl-methyl-4-[(2-(4-methylphenyl)-5-methylimidazol-4-yl)methyl]piperazine trihydrochloride at one of three dosing schedules--A (15minutes), B (60 minutes), or C (3 days b.i.d. plus 15 minutes on 4th day)--before challenging with 100 mg/kg of pentylenetetrazole s.c. The animals were then observed for a 30 minute period and the occurrence of clonic or tonic seizures or death noted. Statistical analysis was by a Chi squared test of association. Results compared against saline treated animals are shown in the below table.

[5] = test system: non-stimulated intestinal transit of the charcoal meal; test: Intestinal transit of a charcoal meal in conscious mice, non-stimulated; type: in vivo; conditions: Mus musculus, po, 15 min pre-treatment, read-out: % Inhibition Normal Transition
Procedure: as §1

[6] = schedule C (3 days b.i.d. plus 15 minutes on 4th day), n=24

## Cc1ccc(-c2nc(CN3CCN(C(c4ccccc4)c4ccccc4)CC3)c(C)[nH]2)cc1.Cl.Cl.Cl [1-diphenylmethyl-4-[(2-(4-methylphenyl)-5-methylimidazol-4-yl)methyl]piperazine trihydrochloride]
[1]; Hip C2-5
  Mean % Abnormal Neurones, Hip C2-5: 1.78 ± 0.99%
[1]; Hip CA
  Mean % Abnormal Neurones, Hip CA: 16.76 ± 4.00%
[1]; Hip. Cortex
  Mean % Abnormal Neurones, Hip. Cortex: 2.41 ± 0.30%
[1]; Purk. cells
  Mean % Abnormal Neurones, Purk. cells: 2.22 ± 0.79%
[1]; Str. Cortex
  Mean % Abnormal Neurones, Str. Cortex: 2.01 ± 0.29%
[1]; Striatum
  Mean % Abnormal Neurones, Striatum: 1.54 ± 0.33%
[1]; Thalamus
  Mean % Abnormal Neurones, Thalamus: 0.64 ± 0.25%
[2]; 5 mg/kg p.o., 1 hour
  Potassium ion, Cumulative: .04 ± .03 mEq
  Sodium ion, Cumulative: .07 ± .06 mEq
  Urine Volume, Cumulative: 5.7 ± 2.5 mL
[2]; 5 mg/kg p.o., 3 hours
  Potassium ion, Cumulative: .16 ± .09 mEq
  Sodium ion, Cumulative: .39 ± .25 mEq
  Urine Volume, Cumulative: 9.5 ± 3.6 mL
[2]; 5 mg/kg p.o., 6 hours
  Potassium ion, Cumulative: .26 ± .12 mEq
  Sodium ion, Cumulative: .73 ± .32 mEq
  Urine Volume, Cumulative: 11.8 ± 3.9 mL
[2]; 15 mg/kg p.o., 1 hour
  Potassium ion, Cumulative: .04 ± .05 mEq
  Sodium ion, Cumulative: .12 ± .16 mEq
  Urine Volume, Cumulative: 5.7 ± 4.4 mL
[2]; 15 mg/kg p.o., 3 hours
  Potassium ion, Cumulative: .12 ± .06 mEq
  Sodium ion, Cumulative: .44 ± .20 mEq
  Urine Volume, Cumulative: 9.8 ± 3.2 mL
[2]; 15 mg/kg p.o., 6 hours
  Potassium ion, Cumulative: .20 ± .08 mEq
  Sodium ion, Cumulative: .68 ± .28 mEq
  Urine Volume, Cumulative: 11.7 ± 3.3 mL
[2]; 30 mg/kg p.o., 1 hour
  Potassium ion, Cumulative: .04 ± .03 mEq
  Sodium ion, Cumulative: .15 ± .12 mEq
  Urine Volume, Cumulative: 6.5 ± 2.3 mL
[2]; 30 mg/kg p.o., 3 hours
  Potassium ion, Cumulative: .15 ± .08 mEq
  Sodium ion, Cumulative: .79 ± .38 mEq
  Urine Volume, Cumulative: 10.5 ± 2.5 mL
[2]; 30 mg/kg p.o., 6 hours
  Potassium ion, Cumulative: .27 ± .06 mEq
  Sodium ion, Cumulative: 1.48 ± .24 mEq
  Urine Volume, Cumulative: 14.6 ± 1.4 mL
[2]; 30 mg/kg p.o., at 1 hour and 6 hours post-drug
  diuresis: significant (p<0.05) diuresis
[2]; 30 mg/kg p.o., at the 3 and 6 hour time periods
  natriuretic effect: significant natriuretic effect
[2]; following compound administration, p.o.
  kaliuretic effects: No significant kaliuretic effects were observed
[3]; 5 mg/kg p.o.
  inhibition at 5 mg/kg: 14%
[3]; 25 mg/kg p.o.
  inhibition at 25 mg/kg: -30.4%
[3]; 60 mg/kg p.o.
  inhibition at 60 mg/kg: -31.7%
[4]; schedule A (15 minutes), n=20
  % clonic seizures: 85.0%
  % death: 50.0%
  % tonic seizures: 85.0%
[4]; schedule B (60 minutes), n=25
  % clonic seizures: 88.0%
  % death: 36.0%
  % tonic seizures: 64.0%
[4]; [6]
  % clonic seizures: 66.7%
  % death: 45.0%
  % tonic seizures: 41.7%
[5]; 5 mg/kg p.o.
  inhibition at 5 mg/kg: -19.3%
[5]; 25 mg/kg p.o.
  inhibition at 25 mg/kg: -28.7%
[5]; 60 mg/kg p.o.
  inhibition at 60 mg/kg: -16.1%

Reference: US5276034A, “Substituted imidazolyl-alkyl-piperazine and -diazepine derivatives” (Syntex Pharmaceutical Ltd., priority 1991, dated 1994)
